Values joined by “and” are separate entries in the source; they are usually repeats but may differ in a detail not shown here. Equal entries are not always repeated.
Tests used:
Assay type in all cases: cell-based
[1] = system: Salmonella typhimurium (TA98, TA1537, TA100, and TA1535) and Escherichia coli (WP2 uvrA); assay: Ames test (reverse mutation test), all bacterial tester strains; details: any of the bacterial tester strains, with and/or without S9 mix
Description: (§1) Ames Test (Reverse Mutation Test)
(§2) Two plates per treatment were used.

[2] = system: Salmonella typhimurium TA1535; assay: Ames test (reverse mutation test), TA1535
Description: as §1, §2

[3] = system: Escherichia coli WP2 uvrA; assay: Ames test (reverse mutation test), WP2 uvrA; details: for Number of revertant colonies WP2uvrA: S9 Mix −
Description: as §1, §2

[4] = system: Salmonella typhimurium TA1537; assay: Ames test (reverse mutation test), TA1537
Description: as §1, §2

[5] = system: Salmonella typhimurium TA100; assay: Ames test (reverse mutation test), TA100; details: with S9 mix
Description: as §1, §2

[6] = system: Salmonella typhimurium TA98; assay: Ames test (reverse mutation test), TA98; details: with S9 mix
Description: as §1, §2

[7] = with S9 mix, dose 1667 μg/plate
[8] = with S9 mix, dose 5000 μg/plate

Row | Compound | potential to induce reverse mutations, TA1537 ([4]; with S9 mix) | Number of revertant colonies TA1535 ([2]; S9 Mix +, 2.3 μg/plate) | Number of revertant colonies TA1535 ([2]; S9 Mix +, 6.9 μg/plate) | Number of revertant colonies TA1535 ([2]; S9 Mix +, 21 μg/plate) | Number of revertant colonies TA1535 ([2]; S9 Mix +, 62 μg/plate) | Number of revertant colonies TA1535 ([2]; S9 Mix +, 185 μg/plate) | Number of revertant colonies TA1535 ([2]; S9 Mix +, 556 μg/plate) | Number of revertant colonies TA1535 ([2]; S9 Mix +, 1667 μg/plate) | Number of revertant colonies TA1535 ([2]; S9 Mix +, 5000 μg/plate) | Number of revertant colonies TA1535 ([2]; S9 Mix −, 2.3 μg/plate) | Number of revertant colonies TA1535 ([2]; S9 Mix −, 6.9 μg/plate) | Number of revertant colonies TA1535 ([2]; S9 Mix −, 21 μg/plate) | Number of revertant colonies TA1535 ([2]; S9 Mix −, 62 μg/plate) | Number of revertant colonies TA1535 ([2]; S9 Mix −, 185 μg/plate) | Number of revertant colonies TA1535 ([2]; S9 Mix −, 556 μg/plate) | Number of revertant colonies TA1535 ([2]; S9 Mix −, 1667 μg/plate) | Number of revertant colonies TA1535 ([2]; S9 Mix −, 5000 μg/plate) | potential to induce reverse mutations, TA100 [5] | potential to induce reverse mutations, TA98 [6] | further results
1 | Nc1cc(-c2cc(F)cc(OC(F)(F)F)c2)n(-c2cncc(C(F)(F)F)c2)n1 [Metabolite 5] | – | – | – | – | – | – | – | – | – | – | – | – | – | – | – | – | – | – | – | potential to induce reverse mutations [1]: did not show potential to induce reverse mutations; Number of revertant colonies TA1535 ([2]; with S9 mix, dose 6.9 μg/plate): 10; Number of revertant colonies TA1535 ([2]; with S9 mix, dose 21 μg/plate): 11; Number of revertant colonies TA1535 ([2]; with S9 mix, dose 62 μg/plate): 10; Number of revertant colonies TA1535 ([2]; with S9 mix, dose 185 μg/plate): 9; Number of revertant colonies TA1535 ([2]; with S9 mix, dose 556 μg/plate): 7; Number of revertant colonies TA1535 [2, 7]: 4; Number of revertant colonies TA1535 [2, 8]: 2; Number of revertant colonies TA1535 ([2]; without S9 mix, dose 6.9 μg/plate): 9; Number of revertant colonies TA1535 ([2]; without S9 mix, dose 21 μg/plate): 11; Number of revertant colonies TA1535 ([2]; without S9 mix, dose 62 μg/plate): 4; Number of revertant colonies TA1535 ([2]; without S9 mix, dose 185 μg/plate): 7; Number of revertant colonies TA1535 ([2]; without S9 mix, dose 556 μg/plate): 6; Number of revertant colonies TA1535 ([2]; without S9 mix, dose 1667 μg/plate): 3; Number of revertant colonies TA1535 ([2]; without S9 mix, dose 5000 μg/plate): 4
2 | Cc1ccc(-n2nc(N)cc2-c2cccc(OCC(F)(F)F)c2)cc1 [Metabolite F] | showed potential to induce reverse mutations | 22 | 21 | 20 | 23 | 13 | 7 | 0 | 0 | 17 | 13 | 19 | 11 | 3 | 0 | 0 | 0 | showed potential to induce reverse mutations | showed potential to induce reverse mutations | potential to induce reverse mutations, WP2 uvrA ([3]; without S9 mix): showed potential to induce reverse mutations
3 | Nc1cc(-c2cccc(OCC(F)(F)F)c2)n(-c2ccc(F)cc2)n1 [Metabolite E] | showed potential to induce reverse mutations | 18 | 32 | 20 | 21 | 15 | 7 | 0 | 0 | 10 | 18 | 12 | 15 | 6 | 0 | 0 | 0 | showed potential to induce reverse mutations | showed potential to induce reverse mutations | Number of revertant colonies WP2uvrA ([3]; 2.3 μg/plate): 20; Number of revertant colonies WP2uvrA ([3]; 6.9 μg/plate): 26; Number of revertant colonies WP2uvrA ([3]; 21 μg/plate): 24; Number of revertant colonies WP2uvrA ([3]; 62 μg/plate): 27; Number of revertant colonies WP2uvrA ([3]; 185 μg/plate): 22; Number of revertant colonies WP2uvrA ([3]; 556 μg/plate): 10; Number of revertant colonies WP2uvrA ([3]; 1667 μg/plate): 15; Number of revertant colonies WP2uvrA ([3]; 5000 μg/plate): 7; potential to induce reverse mutations, TA1537 ([4]; without S9 mix): showed potential to induce reverse mutations; potential to induce reverse mutations, TA1535 ([2]; with S9 mix): showed potential to induce reverse mutations
4 | CC(C)(OCc1cc(F)cc(-c2cc(N)nn2-c2ccc(F)cc2)c1)C(F)(F)F [Metabolite D] | showed potential to induce reverse mutations | 10 | 15 | 14 | 11 | 9 | 7 | 7 | 3 | 20 | 21 | 11 | 6 | 9 | 5 | 6 | 7 | – | showed potential to induce reverse mutations | –
5 | Cl.Nc1c2ccccc2nc2ccccc12.O [Example 9AA, 9-Aminoacridine hydrochloride monohydrate, reference compound] | – | – | – | – | – | – | – | – | – | – | – | – | – | – | – | – | – | – | – | Number of revertant colonies TA1537 ([4]; without S9 mix, dose 80 μg/plate (positive control)): 372
6 | CC(C)(C)Oc1cccc(-c2cc(N)nn2-c2ccccc2)c1 [Metabolite C] | – | – | – | – | – | – | – | – | – | 6 | 5 | 6 | 3 | 4 | 0 | 1 | 0 | showed potential to induce reverse mutations | showed potential to induce reverse mutations | Number of revertant colonies TA1537 ([4]; with S9 mix, dose 2.3 μg/plate): 6; Number of revertant colonies TA1537 ([4]; with S9 mix, dose 6.9 μg/plate): 7; Number of revertant colonies TA1537 ([4]; with S9 mix, dose 21 μg/plate): 7; Number of revertant colonies TA1537 ([4]; with S9 mix, dose 62 μg/plate): 9; Number of revertant colonies TA1537 ([4]; with S9 mix, dose 185 μg/plate): 9; Number of revertant colonies TA1537 ([4]; with S9 mix, dose 556 μg/plate): 4; Number of revertant colonies TA1537 [4, 7]: 4; Number of revertant colonies TA1537 [4, 8]: 5; Number of revertant colonies TA1535 ([2]; with S9 mix, dose 2.3 μg/plate): 8; Number of revertant colonies TA1535 ([2]; with S9 mix, dose 6.9 μg/plate): 8; Number of revertant colonies TA1535 ([2]; with S9 mix, dose 21 μg/plate): 5; Number of revertant colonies TA1535 ([2]; with S9 mix, dose 62 μg/plate): 4; Number of revertant colonies TA1535 ([2]; with S9 mix, dose 185 μg/plate): 5; Number of revertant colonies TA1535 ([2]; with S9 mix, dose 556 μg/plate): 4; Number of revertant colonies TA1535 [2, 7]: 5; Number of revertant colonies TA1535 [2, 8]: 4
7 | Cc1cccc(-n2nc(N)cc2-c2cccc(OC(F)(F)F)c2)c1 [Metabolite H] | showed potential to induce reverse mutations | 11 | 14 | 19 | 15 | 13 | 6 | 3 | 3 | 12 | 17 | 18 | 14 | 14 | 6 | 6 | 4 | showed potential to induce reverse mutations | showed potential to induce reverse mutations | –
8 | Nc1ccc2cc3ccccc3cc2c1 [Example 2AA, 2-Aminoanthracene, reference compound] | – | – | – | – | – | – | – | – | – | – | – | – | – | – | – | – | – | – | – | Number of revertant colonies TA1537 ([4]; with S9 mix, dose 2 μg/plate (positive control)): 135; Number of revertant colonies TA1535 ([2]; S9 Mix +, 2.0 μg/plate): 332 and 308 and 331 and 261 and 349; Number of revertant colonies TA1535 ([2]; with S9 mix, dose 2.0 (2) μg/plate (positive control)): 223 and 146 and 250; Number of revertant colonies TA98 ([6]; dose 0.5 μg/plate (positive control)): 289
9 | NC(=O)C(=Cc1ccc([N+](=O)[O-])o1)c1ccco1 [AF-2, 2-(2-Furyl)-3-(5-nitro-2-furyl)acrylamide, reference compound] | – | – | – | – | – | – | – | – | – | – | – | – | – | – | – | – | – | – | – | Number of revertant colonies WP2uvrA ([3]; 0.01 μg/plate): 74 and 89 and 100 and 87 and 79
10 | Nc1cc(-c2cccc(OC(F)(F)F)c2)n(-c2cccc(F)c2)n1 [Metabolite G] | – | 12 | 14 | 11 | 8 | 5 | 5 | 4 | 4 | 15 | 16 | 21 | 9 | 9 | 0 | 0 | 0 | showed potential to induce reverse mutations | – | Number of revertant colonies WP2uvrA ([3]; 2.3 μg/plate): 26; Number of revertant colonies WP2uvrA ([3]; 6.9 μg/plate): 23; Number of revertant colonies WP2uvrA ([3]; 21 μg/plate): 16; Number of revertant colonies WP2uvrA ([3]; 62 μg/plate): 14; Number of revertant colonies WP2uvrA ([3]; 185 μg/plate): 15; Number of revertant colonies WP2uvrA ([3]; 556 μg/plate): 10; Number of revertant colonies WP2uvrA ([3]; 1667 μg/plate): 17; Number of revertant colonies WP2uvrA ([3]; 5000 μg/plate): 6; potential to induce reverse mutations, TA1535 ([2]; without S9 mix): showed potential to induce reverse mutations
